# Measurements: patent US20220267298A1 (priority 2019, published 2022)
# Molecular target: T1, GRK2 (Homo sapiens, UniProt P25098)
# T1 sequence (P25098 1-689): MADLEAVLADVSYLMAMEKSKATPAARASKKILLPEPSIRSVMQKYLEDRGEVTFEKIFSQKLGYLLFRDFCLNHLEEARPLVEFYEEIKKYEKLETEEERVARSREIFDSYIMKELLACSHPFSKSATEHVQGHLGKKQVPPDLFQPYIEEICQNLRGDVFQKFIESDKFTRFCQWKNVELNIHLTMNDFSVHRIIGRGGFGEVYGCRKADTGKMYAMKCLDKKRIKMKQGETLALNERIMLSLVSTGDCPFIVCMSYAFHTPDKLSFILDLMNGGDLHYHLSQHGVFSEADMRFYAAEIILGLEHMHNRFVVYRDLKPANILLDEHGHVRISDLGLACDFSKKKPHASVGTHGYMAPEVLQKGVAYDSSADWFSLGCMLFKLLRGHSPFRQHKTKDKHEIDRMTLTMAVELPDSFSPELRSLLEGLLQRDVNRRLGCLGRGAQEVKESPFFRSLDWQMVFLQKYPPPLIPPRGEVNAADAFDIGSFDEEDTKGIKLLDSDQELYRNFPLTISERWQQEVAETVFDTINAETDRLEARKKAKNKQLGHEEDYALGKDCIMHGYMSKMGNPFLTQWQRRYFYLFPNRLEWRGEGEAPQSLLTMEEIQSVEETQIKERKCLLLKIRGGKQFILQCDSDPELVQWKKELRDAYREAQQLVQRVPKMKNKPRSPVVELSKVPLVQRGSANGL
# Experiment: biochemical
# Conditions: GRK2 IC50 (μM), 10 nM GRK2; 10 uM ATP
row,SMILES,IC50 [µM]
1,"COc1cccc(Cn2cnc3ccc(-c4ccnc5[nH]ccc45)cc3c2=O)c1 [Compound 53, 3-[(3-Methoxyphenyl)methyl]-6-(1H-pyrrolo[2,3-b]pyridin-4-yl)quinazolin-4-one]",2.45
2,"CCOc1cccc(C(CS(C)(=O)=O)n2cnc3ccc(-c4cn[nH]c4)cc3c2=O)c1 (stereo not shown) [Compound 15, 3-(1-(3-Ethoxyphenyl)-2-(methylsulfonyl)ethyl)-6-(1H-pyrazol-4-yl)quinazolin-4(3H)-one]",5.59
3,"COc1cc(Cn2cnc3ccc(-c4ccnc5[nH]ccc45)cc3c2=O)ccc1F [Compound 54, 3-[(4-Fluoro-3-methoxy-phenyl)methyl]-6-(1H-pyrrolo[2,3-b]pyridin-4-yl)quinazolin-4-one]",12.3
4,"COc1cccc(C(C)n2cnc3ccc(-c4c[nH]nc4N)cc3c2=O)c1 (stereo not shown) [Compound 19, 6-(3-Amino-1H-pyrazol-4-yl)-3-[1-(3-methoxyphenyl)ethyl]quinazolin-4-one]",> 50
5,"COc1cccc(C(C2CCS(=O)(=O)CC2)n2cnc3ccc(-c4cn[nH]c4)cc3c2=O)c1 (stereo not shown) [Compound 22, 3-((1,1-Dioxidotetrahydro-2H-thiopyran-4-yl)(3-methoxyphenyl)methyl)-6-(1H-pyrazol-4-yl)quinazolin-4(3H)-one]",4.11
6,"COc1cccc(Cn2cnc3ccc(-c4nn[nH]n4)cc3c2=O)c1 [Compound 48, 3-[(3-Methoxyphenyl)methyl]-6-(2H-tetrazol-5-yl)quinazolin-4-one]",> 50
7,"Cc1nc2ccc(-c3cn[nH]c3)cc2c(=O)n1Cc1cccc(OC2CN(C)C2)c1 [Compound 25, 2-Methyl-3-(3-((1-methylazetidin-3-yl)oxy)benzyl)-6-(1H-pyrazol-4-yl)quinazolin-4(3H)-one]",2.34
8,"COc1cccc(Cn2cnc3ccc(-c4cnc(N)nc4)cc3c2=O)c1 [Compound 52, 6-(2-Aminopyrimidin-5-yl)-3-(3-methoxybenzyl)quinazolin-4(3H)-one]",> 19
9,"O=C(NCc1ccc(F)cc1F)c1ccc(Cn2cnc3ccc(-c4cn[nH]c4)cc3c2=O)cc1 [Compound C2, N-[(2,4-Difluorophenyl)methyl]-4-[[4-oxo-6-(1H-pyrazol-4-yl)quinazolin-3-yl]methyl]benzamide]",4.34
10,"COc1cccc(Cn2cnc3ccc(-c4cn[nH]c(=O)c4)cc3c2=O)c1 [Compound 46, 3-[(3-Methoxyphenyl)methyl]-6-(6-oxo-1H-pyridazin-4-yl)quinazolin-4-one]",1.46
11,"COc1ccc(F)cc1Cn1cnc2ccc(-c3cn[nH]c3)cc2c1=O [Compound 40, 3-[(5-Fluoro-2-methoxy-phenyl)methyl]-6-(1H-pyrazol-4-yl)quinazolin-4-one]",1.72
12,"O=c1c2cc(-c3cn[nH]c3)ccc2ncn1Cc1cccc(OC(F)(F)F)c1 [Compound 66, 6-(1H-Pyrazol-4-yl)-3-[[3-(trifluoromethoxy)phenyl]methyl]quinazolin-4-one]",22.2
13,"O=C(NCc1ccc(F)cc1)c1cccc(-n2cnc3ccc(-c4cn[nH]c4)cc3c2=O)c1 [Compound C1, N-[(4-Fluorophenyl)methyl]-3-[4-oxo-6-(1H-pyrazol-4-yl)quinazolin-3-yl]benzamide]",1.63
14,"O=c1c2cc(-c3cccnc3)ccc2ncn1Cc1cccc(Cl)c1 [Compound 49, 3-[(3-Chlorophenyl)methyl]-6-(3-pyridyl)quinazolin-4-one]",> 50

# Now those with a lower IC50, led by results:
row,IC50 [µM],SMILES
1,0.033,"CC(c1cccc(NS(C)(=O)=O)c1)n1cnc2ccc(-c3cn[nH]c3)cc2c1=O (stereo not shown) [Compound 33, N-[3-[1-[4-Oxo-6-(1H-pyrazol-4-yl)quinazolin-3-yl]ethyl]phenyl]methanesulfonamide]"
2,0.212,"O=C(NCc1ccc(F)cc1)c1cc(Cn2cnc3ccc(-c4cn[nH]c4)cc3c2=O)ccn1 [Compound C5, N-[(4-Fluorophenyl)methyl]-4-[[4-oxo-6-(1H-pyrazol-4-yl)quinazolin-3-yl]methyl]pyridine-2-carboxamide]"
3,0.065,"O=c1c2cc(-c3cn[nH]c3)ccc2ncn1Cc1cccc(OCc2ccccc2)c1 [Compound 63, 3-[(3-Benzyloxyphenyl)methyl]-6-(1H-pyrazol-4-yl)quinazolin-4-one]"
4,0.025,"COc1cccc(C(CO)n2cnc3ccc(-c4cn[nH]c4)cc3c2=O)c1 (stereo not shown) [Compound 42, 3-[2-Hydroxy-1-(3-methoxyphenyl)ethyl]-6-(1H-pyrazol-4-yl)quinazolin-4-one]"
5,0.157,"COc1cccc(C(CCO)n2cnc3ccc(-c4cn[nH]c4)cc3c2=O)c1 (stereo not shown) [Compound 32, 3-(3-Hydroxy-1-(3-methoxyphenyl)propyl)-6-(1H-pyrazol-4-yl)quinazolin-4(3H)-one]"
6,0.035,"[2H]C([2H])(Oc1cccc([C@@H](C)n2cnc3ccc(-c4cn[nH]c4)cc3c2=O)c1)C(=O)NC1CC1 [Compound 23, N-Cyclopropyl-2,2-dideuterio-2-[3-[(1R)-1-[4-oxo-6-(1H-pyrazol-4-yl)quinazolin-3-yl]ethyl]phenoxy]acetamide]"
7,0.757,"COc1cccc(Cn2cnc3ccc(-c4c[nH]c5ncccc45)cc3c2=O)c1 [Compound 43, 3-[(3-Methoxyphenyl)methyl]-6-(1H-pyrrolo[2,3-b]pyridin-3-yl)quinazolin-4-one]"
8,0.271,"COc1cccc(Cn2cnc3ccc(-c4ccnc(N)n4)cc3c2=O)c1 [Compound 45, 6-(2-Aminopyrimidin-4-yl)-3-[(3-methoxyphenyl)methyl]quinazolin-4-one]"
9,0.093,"O=c1c2cc(-c3cn[nH]c3)ccc2ncn1Cc1cccc2c1OCO2 [Compound C4, 3-(1,3-Benzodioxol-4-ylmethyl)-6-(1H-pyrazol-4-yl)quinazolin-4-one]"
10,0.075,"O=c1c2cc(-c3cn[nH]c3)ccc2ncn1Cc1cccc(Cl)c1 [Compound 50, 3-[(3-Chlorophenyl)methyl]-6-(1H-pyrazol-4-yl)quinazolin-4-one]"
11,1.31,"CC(c1cccc(OCCS(C)(=O)=O)c1)n1cnc2ccc(-c3cn[nH]c3)cc2c1=O (stereo not shown) [Compound 17, 3-(1-(3-(2-(Methylsulfonyl)ethoxy)phenyl)ethyl)-6-(1H-pyrazol-4-yl)quinazolin-4(3H)-one]"
12,0.008,"CC(c1cccc(O)c1)n1cnc2ccc(-c3cn[nH]c3)cc2c1=O (stereo not shown) [Compound 31, 3-[1-(3-Hydroxyphenyl)ethyl]-6-(1H-pyrazol-4-yl)quinazolin-4-one]"
13,0.425,"COc1cccc(Cn2c(C(F)(F)F)nc3ccc(-c4cn[nH]c4)cc3c2=O)c1 [Compound 21, 3-[(3-Methoxyphenyl)methyl]-6-(1H-pyrazol-4-yl)-2-(trifluoromethyl)quinazolin-4-one]"
14,0.054,"COc1cccc(C(CCN(C)C)n2cnc3ccc(-c4cn[nH]c4)cc3c2=O)c1 (stereo not shown) [Compound 29, 3-(3-(Dimethylamino)-1-(3-methoxyphenyl)propyl)-6-(1H-pyrazol-4-yl)quinazolin-4(3H)-one]"
15,0.088,"O=C(O)COc1cccc(Cn2cnc3ccc(-c4cn[nH]c4)cc3c2=O)c1 [Compound 27, 2-[3-[[4-Oxo-6-(1H-pyrazol-4-yl)quinazolin-3-yl]methyl]phenoxy]acetic acid]"
16,0.066,"COc1cccc(Cn2cnc3ccc(-c4c[nH]nc4C)cc3c2=O)c1 [Compound 37, 3-[(3-Methoxyphenyl)methyl]-6-(3-methyl-1H-pyrazol-4-yl)quinazolin-4-one]"
17,0.1,"COc1cccc(Cn2cnc3ccc(-c4cn[nH]n4)cc3c2=O)c1 [Compound 44, 3-[(3-Methoxyphenyl)methyl]-6-(2H-triazol-4-yl)quinazolin-4-one]"
